Assays:
CHO-CFTR cell line = target: T1, CHO-CFTR cell line (Homo sapiens, UniProt P13569); assay: CHO-CFTR assay (FLIPR assay, same conditions as the T84 assay); type: cell-based; settings: imidazole and triazole-containing compounds
T1 construct: expressed in transfected cells; host or cells: CHO (CHO-CFTR cell line)

CFTR = target: T2, CFTR (Homo sapiens, UniProt P13569); assay: T84 assay (FLIPR membrane potential dye, forskolin/IBMX-stimulated CFTR channel activity); type: cell-based; settings: imidazole and triazole-containing compounds (Tables 13, 14, 14′), read-out: IC50 (μM) (T84 assay)
T2 construct: endogenous in cells; host or cells: T84 human colonic cells (ECACC)
In short: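 Fluorescence from a membrane potential dye in T84 monolayers (HBSS with 10 mM Hepes) is followed each second for 150 s. Cells are exposed to test compound during the 45 min dye loading, then challenged with forskolin (10 μM) and IBMX (100 μM) to open CFTR. Inhibitors suppress the depolarization-driven fluorescence increase.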

T2 sequence (P13569 whole entry): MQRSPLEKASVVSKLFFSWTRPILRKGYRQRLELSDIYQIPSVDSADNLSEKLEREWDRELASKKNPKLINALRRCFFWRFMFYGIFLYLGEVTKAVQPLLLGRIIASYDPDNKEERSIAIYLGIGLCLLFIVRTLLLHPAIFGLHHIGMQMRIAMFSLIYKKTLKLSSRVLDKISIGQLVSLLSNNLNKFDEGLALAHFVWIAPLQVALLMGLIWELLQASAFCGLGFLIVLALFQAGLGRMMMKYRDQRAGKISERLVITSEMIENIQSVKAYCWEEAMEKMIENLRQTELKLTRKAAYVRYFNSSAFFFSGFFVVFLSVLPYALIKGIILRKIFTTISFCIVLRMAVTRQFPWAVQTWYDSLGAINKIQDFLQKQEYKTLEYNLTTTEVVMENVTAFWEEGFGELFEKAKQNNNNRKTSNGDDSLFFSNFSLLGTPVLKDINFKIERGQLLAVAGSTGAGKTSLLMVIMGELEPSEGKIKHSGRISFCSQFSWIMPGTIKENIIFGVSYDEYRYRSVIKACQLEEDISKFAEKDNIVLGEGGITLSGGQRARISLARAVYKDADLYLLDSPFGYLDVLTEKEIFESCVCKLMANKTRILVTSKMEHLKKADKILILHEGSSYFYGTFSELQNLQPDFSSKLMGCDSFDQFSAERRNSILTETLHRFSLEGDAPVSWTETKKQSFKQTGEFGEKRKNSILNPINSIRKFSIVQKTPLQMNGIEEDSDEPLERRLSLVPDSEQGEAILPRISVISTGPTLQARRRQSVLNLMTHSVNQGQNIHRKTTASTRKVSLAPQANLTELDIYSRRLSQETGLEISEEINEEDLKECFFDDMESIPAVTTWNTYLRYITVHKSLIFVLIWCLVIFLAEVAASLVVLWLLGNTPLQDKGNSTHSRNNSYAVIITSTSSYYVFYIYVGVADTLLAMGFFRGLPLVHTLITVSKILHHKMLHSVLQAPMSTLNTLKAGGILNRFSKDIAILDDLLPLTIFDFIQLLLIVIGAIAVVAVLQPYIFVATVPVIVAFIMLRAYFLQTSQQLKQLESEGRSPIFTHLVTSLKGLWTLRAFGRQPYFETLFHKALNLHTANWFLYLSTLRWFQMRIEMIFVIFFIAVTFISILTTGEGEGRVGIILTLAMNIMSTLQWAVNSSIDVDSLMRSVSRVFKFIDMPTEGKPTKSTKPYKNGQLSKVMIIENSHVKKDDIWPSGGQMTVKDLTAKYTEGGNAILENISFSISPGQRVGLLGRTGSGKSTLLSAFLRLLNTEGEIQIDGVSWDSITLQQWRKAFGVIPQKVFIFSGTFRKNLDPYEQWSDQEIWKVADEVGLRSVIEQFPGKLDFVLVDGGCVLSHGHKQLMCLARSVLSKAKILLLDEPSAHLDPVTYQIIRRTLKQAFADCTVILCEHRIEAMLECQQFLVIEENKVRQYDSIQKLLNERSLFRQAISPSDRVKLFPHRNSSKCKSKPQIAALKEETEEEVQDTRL
T1 sequence (P13569 whole entry): as above

O=C(NCc1cccc(OC(F)(F)F)c1)c1ncn(-c2cc(Cl)c(O)c(Cl)c2)n1 [3i, 1-(3,5-dichloro-4-hydroxyphenyl)-N-(3-(trifluoromethoxy)benzyl)-1H-1,2,4-triazole-3-carboxamide]
IC50 (CHO-CFTR cell line): 3.37 µM
IC50 (CFTR): 7.14 µM

O=C(c1ncn(-c2cc(Cl)c(O)c(Cl)c2)n1)N1CCN(c2cccc(C(F)(F)F)c2)CC1 [4i, (1-(3,5-dichloro-4-hydroxyphenyl)-1H-1,2,4-triazol-3-yl)(4(3-(trifluoromethyl)phenyl)piperazin-1-yl)methanone]
IC50 (CHO-CFTR cell line): 14.3 µM
IC50 (CFTR): 8.15 µM

O=C(c1cn(-c2cc(Br)c(O)c(Br)c2)cn1)N1CCC(Cc2ccccc2)CC1 [19i, (4-benzylpiperidin-1-yl)(1-(3,5-dibromo-4-hydroxyphenyl)-1H-imidazol-4-yl)methanone]
IC50 (CHO-CFTR cell line): 7.5 µM
IC50 (CFTR): 17.4 µM

O=C(NCc1cccc(OC(F)(F)F)c1)c1cn(-c2cc(Br)c(O)c(Br)c2)cn1 [20i, 1-(3,5-Dibromo-4-hydroxyphenyl)-N-(3-(trifluoromethoxy)benzyl)-1H-imidazole-4-carboxamide]
IC50 (CHO-CFTR cell line): 2.31 µM
IC50 (CFTR): 17.6 µM

O=C(NCc1ccc(F)c(Cl)c1)c1ncn(-c2cc(Cl)c(O)c(Cl)c2)n1 [23i, N-(3-chloro-4-fluorobenzyl)-1-(3,5-dichloro-4-hydroxyphenyl)-1H-1,2,4-triazole-3-carboxamide]
IC50 (CHO-CFTR cell line): 12.5 µM
IC50 (CFTR): 7.39 µM

O=C(NCc1cc(F)cc(C(F)(F)F)c1)c1ncn(-c2cc(Cl)c(O)c(Cl)c2)n1 [24i, 1-(3,5-dichloro-4-hydroxyphenyl)-N-(3-fluoro-5-(trifluoromethyl)benzyl)-1H-1,2,4-triazole-3-carboxamide]
IC50 (CHO-CFTR cell line): 15.2 µM
IC50 (CFTR): 4.93 µM

O=C(NCCC(c1ccccc1)c1ccccc1)c1ncn(-c2cc(Cl)c(O)c(Cl)c2)n1 [31i, 1-(3,5-dichloro-4-hydroxyphenyl)-N-(3,3-diphenylpropyl)-1H-1,2,4-triazole-3-carboxamide]
IC50 (CHO-CFTR cell line): 12.9 µM
IC50 (CFTR): 1.67 µM

O=C(NC(c1ccccc1)c1ccc(Cl)cc1)c1ncn(-c2cc(Cl)c(O)c(Cl)c2)n1 (stereo not drawn) [33i, N-((4-chlorophenyl)(phenyl)methyl)-1-(3,5-dichloro-4-hydroxyphenyl)-1H-1,2,4-triazole-3-carboxamide]
IC50 (CHO-CFTR cell line): 4.8 µM
IC50 (CFTR): 3.66 µM

CC(C)(C)c1ccc(CNC(=O)c2ncn(-c3cc(Cl)c(O)c(Cl)c3)n2)cc1 [34i, N-(4-tert-butylbenzyl)-1-(3,5-dichloro-4-hydroxyphenyl)-1H-1,2,4-triazole-3-carboxamide]
IC50 (CHO-CFTR cell line): 4.72 µM
IC50 (CFTR): 1.18 µM

O=C(NCc1cc(Cl)cc(Cl)c1)c1ncn(-c2cc(Cl)c(O)c(Cl)c2)n1 [36i, 1-(3,5-dichloro-4-hydroxyphenyl)-N-(3,5-dichlorobenzyl)-1H-1,2,4-triazole-3-carboxamide]
IC50 (CHO-CFTR cell line): 13.7 µM
IC50 (CFTR): 3.7 µM

O=C(NCc1ccc(Cl)c(Cl)c1)c1ncn(-c2cc(Cl)c(O)c(Cl)c2)n1 [37i, 1-(3,5-dichloro-4-hydroxyphenyl)-N-(3,4-dichlorobenzyl)-1H-1,2,4-triazole-3-carboxamide]
IC50 (CHO-CFTR cell line): 5.71 µM
IC50 (CFTR): 2.67 µM

O=C(NCc1cc(C(F)(F)F)ccc1F)c1ncn(-c2cc(Cl)c(O)c(Cl)c2)n1 [40i, 1-(3,5-dichloro-4-hydroxyphenyl)-N-(2-fluoro-5-(trifluoromethyl)benzyl)-1H-1,2,4-triazole-3-carboxamide]
IC50 (CHO-CFTR cell line): 28.6 µM
IC50 (CFTR): 2.86 µM

O=C(NCC(c1ccccc1)c1ccccc1)c1ncn(-c2cc(Cl)c(O)c(Cl)c2)n1 [44i, 1-(3,5-dichloro-4-hydroxyphenyl)-N-(2,2-diphenylethyl)-1H-1,2,4-triazole-3-carboxamide]
IC50 (CHO-CFTR cell line): 23.2 µM
IC50 (CFTR): 2.8 µM

O=C(NCc1ccc(Oc2ccccc2)cc1)c1ncn(-c2cc(Cl)c(O)c(Cl)c2)n1 [49i, 1-(3,5-dichloro-4-hydroxyphenyl)-N-(4-phenoxybenzyl)-1H-1,2,4-triazole-3-carboxamide]
IC50 (CHO-CFTR cell line): 0.45 µM
IC50 (CFTR): 1.57 µM

CC(C)(C)C(=O)CN(Cc1ccc(C(C)(C)C)cc1)C(=O)c1ncn(-c2cc(Cl)c(O)c(Cl)c2)n1 [50i, N-(4-tert-butylbenzyl)-1-(3,5-dichloro-4-hydroxyphenyl)-N-(3,3-dimethyl-2-oxobutyl)-1H-1,2,4-triazole-3-carboxamide]
IC50 (CHO-CFTR cell line): 18.5 µM
IC50 (CFTR): 1.16 µM

C=CCN(Cc1ccc(C(C)(C)C)cc1)C(=O)c1ncn(-c2cc(Cl)c(O)c(Cl)c2)n1 [51i, N-allyl-N-(4-tert-butylbenzyl)-1-(3,5-dichloro-4-hydroxyphenyl)-1H-1,2,4-triazole-3-carboxamide]
IC50 (CHO-CFTR cell line): 5.13 µM
IC50 (CFTR): 0.63 µM

Oc1c(Cl)cc(-n2cnc(C(O)(c3cc(F)cc(F)c3)c3cc(F)cc(F)c3)n2)cc1Cl [52i, 4-(3-(Bis(3,5-difluorophenyl)(hydroxy)methyl)-1H-1,2,4-triazol-1-yl)-2,6-dichlorophenol]
IC50 (CHO-CFTR cell line): 7.8 µM
IC50 (CFTR): 13.6 µM

Oc1c(Cl)cc(-n2cnc(C(O)(c3cccc(Cl)c3)c3cccc(Cl)c3)n2)cc1Cl [53i, 4-(3-(bis(3-chlorophenyl)(hydroxy)methyl)-1H-1,2,4-triazol-1-yl)-2,6-dichlorophenol]
IC50 (CHO-CFTR cell line): 4.27 µM
IC50 (CFTR): 13 µM

Oc1c(Cl)cc(-n2cnc(C(O)(c3cccc(F)c3)c3cccc(F)c3)n2)cc1Cl [54i, 4-(3-(bis(3-fluorophenyl)(hydroxy)methyl)-1H-1,2,4-triazol-1-yl)-2,6-dichlorophenol]
IC50 (CHO-CFTR cell line): 22.7 µM
IC50 (CFTR): 22.9 µM

Oc1c(Cl)cc(-n2cnc(C(O)(c3ccc(F)c(F)c3)c3ccc(F)c(F)c3)n2)cc1Cl [55i, 4-(3-(bis(3,4-difluorophenyl)(hydroxy)methyl)-1H-1,2,4-triazol-1-yl)-2,6-dichlorophenol]
IC50 (CHO-CFTR cell line): 6.94 µM
IC50 (CFTR): 17.2 µM

Oc1c(Cl)cc(-n2cnc(C(O)(Cc3ccc(F)cc3)Cc3ccc(F)cc3)n2)cc1Cl [56i, 4-(3-(1,3-bis(4-fluorophenyl)-2-hydroxypropan-2-yl)-1H-1,2,4-triazol-1-yl)-2,6-dichlorophenol]
IC50 (CHO-CFTR cell line): 25.5 µM
IC50 (CFTR): 20.4 µM

Oc1c(Cl)cc(-n2cnc(C(O)(c3cc(F)cc(Cl)c3)c3cc(F)cc(Cl)c3)n2)cc1Cl [57i, 4-(3-(bis(3-chloro-5-fluorophenyl)(hydroxy)methyl)-1H-1,2,4-triazol-1-yl)-2,6-dichlorophenol]
IC50 (CHO-CFTR cell line): 3.88 µM
IC50 (CFTR): 14.7 µM

CC(C)(C)c1ccc(C(O)(c2ccc(C(C)(C)C)cc2)c2ncn(-c3cc(Cl)c(O)c(Cl)c3)n2)cc1 [58i, 4-(3-(bis(4-tert-butylphenyl)(hydroxy)methyl)-1H-1,2,4-triazol-1-yl)-2,6-dichlorophenol]
IC50 (CHO-CFTR cell line): 17 µM
IC50 (CFTR): 11.3 µM

Oc1c(Cl)cc(-n2cnc(C(O)(Cc3ccccc3F)Cc3ccccc3F)n2)cc1Cl [59i, 4-(3-(1,3-bis(2-fluorophenyl)-2-hydroxypropan-2-yl)-1H-1,2,4-triazol-1-yl)-2,6-dichlorophenol]
IC50 (CHO-CFTR cell line): 5.45 µM
IC50 (CFTR): 21.1 µM

CC(C)(C)CCN(Cc1ccccc1)C(=O)c1ncn(-c2cc(Cl)c(O)c(Cl)c2)n1 [60i, N-Benzyl-1-(3,5-dichloro-4-hydroxyphenyl)-N-(3,3-dimethylbutyl)-1H-1,2,4-triazole-3-carboxamide]
IC50 (CHO-CFTR cell line): 5.45 µM
IC50 (CFTR): 16.2 µM

CN(C)c1ccc(Oc2ccc(CNC(=O)c3ncn(-c4cc(Cl)c(O)c(Cl)c4)n3)cc2)cc1 [63i, 1-(3,5-dichloro-4-hydroxyphenyl)-N-(4-(4-(dimethylamino)phenoxy)benzyl)-1H-1,2,4-triazole-3-carboxamide]
IC50 (CHO-CFTR cell line): 6.72 µM
IC50 (CFTR): 3.02 µM

O=C(NCc1ccc(Oc2cc(F)c(F)c(F)c2)cc1)c1ncn(-c2cc(Cl)c(O)c(Cl)c2)n1 [65i, 1-(3,5-dichloro-4-hydroxyphenyl)-N-(4-(3,4,5-trifluorophenoxy)benzyl)-1H-1,2,4-triazole-3-carboxamide]
IC50 (CHO-CFTR cell line): 0.86 µM
IC50 (CFTR): 5.83 µM

O=C(NCc1ccc(Oc2ccc(OC(F)(F)F)cc2)cc1)c1ncn(-c2cc(Cl)c(O)c(Cl)c2)n1 [66i, 1-(3,5-dichloro-4-hydroxyphenyl)-N-(4-(4-(trifluoromethoxy)phenoxy)benzyl)-1H-1,2,4-triazole-3-carboxamide]
IC50 (CHO-CFTR cell line): 11.3 µM
IC50 (CFTR): 3.2 µM

O=C(NCc1ccc(Oc2ccc(F)c(C(F)(F)F)c2)cc1)c1ncn(-c2cc(Cl)c(O)c(Cl)c2)n1 [67i, 1-(3,5-dichloro-4-hydroxyphenyl)-N-(4-(4-fluoro-3-(trifluoromethyl)phenoxy)benzyl)-1H-1,2,4-triazole-3-carboxamide]
IC50 (CHO-CFTR cell line): 14.7 µM
IC50 (CFTR): 6.4 µM

CC(C)(C)c1ccc(Oc2ccc(CNC(=O)c3ncn(-c4cc(Cl)c(O)c(Cl)c4)n3)cc2)cc1 [68i, N-(4-(4-tert-butylphenoxy)benzyl)-1-(3,5-dichloro-4-hydroxyphenyl)-1H-1,2,4-triazole-3-carboxamide]
IC50 (CHO-CFTR cell line): 19.1 µM
IC50 (CFTR): 5.34 µM

O=C(NCc1ccc(Oc2cccc(N3CCCC3)c2)cc1)c1ncn(-c2cc(Cl)c(O)c(Cl)c2)n1 [69i, 1-(3,5-dichloro-4-hydroxyphenyl)-N-(4-(3-(pyrrolidin-1-yl)phenoxy)benzyl)-1H-1,2,4-triazole-3-carboxamide]
IC50 (CHO-CFTR cell line): 5.99 µM
IC50 (CFTR): 4.3 µM

O=C(NCc1ccc(Oc2ccc(Cl)c(C(F)(F)F)c2)cc1)c1ncn(-c2cc(Cl)c(O)c(Cl)c2)n1 [70i, N-(4-(4-chloro-3-(trifluoromethyl)phenoxy)benzyl)-1-(3,5-dichloro-4-hydroxyphenyl)-1H-1,2,4-triazole-3-carboxamide]
IC50 (CHO-CFTR cell line): 19.4 µM
IC50 (CFTR): 4.72 µM

O=C(NCc1ccc(Oc2ccc(OCc3ccccc3)c(F)c2)cc1)c1ncn(-c2cc(Cl)c(O)c(Cl)c2)n1 [71i, N-(4-(4-(benzyloxy)-3-fluorophenoxy)benzyl)-1-(3,5-dichloro-4-hydroxyphenyl)-1H-1,2,4-triazole-3-carboxamide]
IC50 (CHO-CFTR cell line): 31 µM
IC50 (CFTR): 8.06 µM

Source: patent US20100144733A1, “Compounds, compositions and methods comprising heteroaromatic derivatives” (Institute for OneWorld Health, priority 2008, published 2010)
